Blank lines part the entries; values can stand above or below the molecule they belong to.
Assays:
MC-38 [1] = assay: Induction of apoptosis in mouse MC38 cells assessed as early apoptotic cells at 1 uM measured after 48 hrs by FITC/PI staining based flow cytometry (Rvb =12.27%); type: functional
MC-38 [2] = assay: Induction of apoptosis in mouse MC38 cells assessed as early apoptotic cells at 4 uM measured after 48 hrs by FITC/PI staining based flow cytometry (Rvb =12.27%); type: functional
Histone deacetylase 7 = molecular target: T1, Histone deacetylase 7 (Homo sapiens, UniProt Q8WUI4); assay: Inhibition of human recombinant HDAC7 pre-incubated with compounds for 10 mins measured followed by 60 mins of substrate addition
T1 sequence (Q8WUI4 whole entry): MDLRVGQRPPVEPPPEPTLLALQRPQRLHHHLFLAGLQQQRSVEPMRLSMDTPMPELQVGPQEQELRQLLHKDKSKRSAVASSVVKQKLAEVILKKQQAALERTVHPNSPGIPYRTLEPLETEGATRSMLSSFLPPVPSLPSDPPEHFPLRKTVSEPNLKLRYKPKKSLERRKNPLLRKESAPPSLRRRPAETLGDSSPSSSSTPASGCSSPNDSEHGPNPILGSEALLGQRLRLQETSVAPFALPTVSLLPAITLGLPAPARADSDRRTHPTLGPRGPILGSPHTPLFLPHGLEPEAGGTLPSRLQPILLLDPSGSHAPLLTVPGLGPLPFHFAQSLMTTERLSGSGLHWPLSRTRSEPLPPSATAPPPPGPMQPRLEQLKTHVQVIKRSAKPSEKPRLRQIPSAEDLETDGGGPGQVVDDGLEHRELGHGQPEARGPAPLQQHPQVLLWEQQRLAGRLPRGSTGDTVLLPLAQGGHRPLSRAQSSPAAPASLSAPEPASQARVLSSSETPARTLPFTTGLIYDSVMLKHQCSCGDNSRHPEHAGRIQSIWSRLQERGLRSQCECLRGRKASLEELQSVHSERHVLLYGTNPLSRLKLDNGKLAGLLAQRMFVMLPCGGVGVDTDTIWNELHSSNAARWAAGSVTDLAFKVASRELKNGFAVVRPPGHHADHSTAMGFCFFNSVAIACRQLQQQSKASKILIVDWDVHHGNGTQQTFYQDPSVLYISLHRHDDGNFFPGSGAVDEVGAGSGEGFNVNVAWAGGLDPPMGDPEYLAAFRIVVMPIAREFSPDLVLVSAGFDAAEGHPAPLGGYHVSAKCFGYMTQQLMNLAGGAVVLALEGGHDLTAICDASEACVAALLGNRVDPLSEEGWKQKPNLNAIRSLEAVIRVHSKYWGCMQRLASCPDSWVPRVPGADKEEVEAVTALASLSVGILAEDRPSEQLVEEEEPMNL

HepG2 = assay: Antiproliferative activity against human HepG2 cells measured after 48 hrs incubation by MTT assay relative to control; type: functional, cell-based; conditions: HepG2, 48 h
Histone deacetylase 8 = molecular target: T2, Histone deacetylase 8 (Homo sapiens, UniProt Q9BY41); assay: Inhibition of human recombinant HDAC8 pre-incubated with compounds for 10 mins measured followed by 60 mins of substrate addition
T2 sequence (Q9BY41 whole entry): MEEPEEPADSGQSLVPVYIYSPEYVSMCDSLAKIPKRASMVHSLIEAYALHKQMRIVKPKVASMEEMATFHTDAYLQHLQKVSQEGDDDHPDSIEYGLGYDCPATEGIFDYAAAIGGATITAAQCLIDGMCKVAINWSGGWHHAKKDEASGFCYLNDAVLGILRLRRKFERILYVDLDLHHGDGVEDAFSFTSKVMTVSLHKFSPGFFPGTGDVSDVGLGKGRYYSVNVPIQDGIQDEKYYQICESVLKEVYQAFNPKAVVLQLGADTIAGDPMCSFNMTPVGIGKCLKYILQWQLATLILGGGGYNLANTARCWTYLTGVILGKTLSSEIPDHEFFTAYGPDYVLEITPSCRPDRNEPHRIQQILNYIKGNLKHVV

MC-38 [3] = assay: Induction of apoptosis in mouse MC38 cells assessed as early apoptotic cells at 2 uM measured after 48 hrs by FITC/PI staining based flow cytometry (Rvb =12.27%); type: functional
Histone deacetylase 1 = Histone deacetylase 1 (Homo sapiens, UniProt Q13547); assay: Inhibition of human recombinant HDAC1 pre-incubated with compounds for 10 mins measured followed by 60 mins of substrate addition
Chain of Histone deacetylase 1 (Q13547 whole entry): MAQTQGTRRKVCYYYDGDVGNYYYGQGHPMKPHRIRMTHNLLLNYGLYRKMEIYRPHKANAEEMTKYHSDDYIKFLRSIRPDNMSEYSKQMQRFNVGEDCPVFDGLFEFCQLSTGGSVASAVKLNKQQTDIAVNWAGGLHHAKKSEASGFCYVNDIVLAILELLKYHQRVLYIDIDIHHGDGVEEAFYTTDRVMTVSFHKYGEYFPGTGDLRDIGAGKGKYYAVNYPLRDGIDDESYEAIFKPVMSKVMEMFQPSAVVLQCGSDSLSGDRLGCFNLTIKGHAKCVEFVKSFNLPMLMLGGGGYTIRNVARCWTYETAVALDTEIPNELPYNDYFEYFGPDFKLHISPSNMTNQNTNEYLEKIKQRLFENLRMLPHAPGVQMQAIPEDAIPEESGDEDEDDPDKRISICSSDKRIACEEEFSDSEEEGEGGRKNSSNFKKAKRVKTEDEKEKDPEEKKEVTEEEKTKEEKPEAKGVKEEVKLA

MC-38 [4] = assay: Induction of apoptosis in mouse MC38 cells assessed as late apoptotic cells at 4 uM measured after 48 hrs by FITC/PI staining based flow cytometry (reference value: 5.07%); type: functional
[5] = Antiproliferative activity against […] cells measured after 48 hrs incubation by MTT assay relative to control; type: functional, cell-based; conditions: Mus musculus, Lung cancer cell line
MC-38 [6] = assay: Cell cycle arrest in mouse MC38 cells assessed as decrease in accumulation of cells at G0/G1 phase measured after 48 hrs by flow cytometry; type: functional, cell-based; conditions: dose 1-8 µM
MC-38 [7] = assay: Induction of apoptosis in mouse MC38 cells assessed as necrotic cells at 8 uM measured after 48 hrs by FITC/PI staining based flow cytometry (reference value: 0.56%); type: functional
MC-38 [8] = assay: Antiproliferative activity against mouse MC38 cells measured after 48 hrs incubation by MTT assay relative to control; type: functional, cell-based; conditions: MC-38, 48 h
MC-38 [9] = assay: Induction of apoptosis in mouse MC38 cells assessed as viable cells at 4 uM measured after 48 hrs by FITC/PI staining based flow cytometry (reference value: 82.07%); type: functional; conditions: read-out: Activity
MC-38 [10] = assay: Induction of apoptosis in mouse MC38 cells assessed as late apoptotic cells at 8 uM measured after 48 hrs by FITC/PI staining based flow cytometry (reference value: 5.07%); type: functional
B16-F10 = assay: Antiproliferative activity against mouse B16-F10 cells at 1 uM measured after 48 hrs incubation by MTT assay relative to control
MC-38 [11] = assay: Induction of PD-L1 expression in mouse MC38 cells measured after 24 hrs incubation by Western blot analysis; type: functional, cell-based; conditions: dose 1-4 µM
MC-38 [12] = assay: Induction of apoptosis in mouse MC38 cells assessed as necrotic cells at 4 uM measured after 48 hrs by FITC/PI staining based flow cytometry (reference value: 0.56%); type: functional
MCF7 = assay: Antiproliferative activity against human MCF7 cells measured after 48 hrs incubation by MTT assay relative to control; type: functional, cell-based; conditions: MCF7, 48 h
Mus musculus = assay: Immunomodulatory effect in C57BL/6 mouse allografted mouse MC38 cells assessed as increase in tumor infiltrating lymphocytes by measuring increase in CD4+ T helper cells in mouse lymph nodes in presence of NP19 PD-L1 inhibitor at 50 mg/kg, po treated 5 days after cell inoculation 19 th day by flow cytometry analysis (reference value: 15.5%); type: functional; conditions: time 15 day
[13] = AUC (0 to infinity) in Sprague-Dawley rat at 20 mg/kg, iv measured upto 12 hrs by LC-MS/MS analysis; type: ADME, organism-based; conditions: in vivo
[14] = Half life in Sprague-Dawley rat at 20 mg/kg, po measured upto 12 hrs by LC-MS/MS analysis; type: ADME, organism-based; conditions: in vivo
MC-38 [15] = assay: Induction of mitochondrial membrane damage in mouse MC38 cells assessed as decrease in JC-1 aggregation by measuring red fluorescence at 2 uM measured after 48 hrs (reference value: 96.70%); type: functional; parameters: scale not given: the % may be the effect or the level left

- IC50 (Histone deacetylase 7): > 10000 nM
- IC50 (HepG2): 370 nM
- IC50 (Histone deacetylase 8): > 10000 nM
- IC50 (Histone deacetylase 1): 2030 nM
- IC50 (MCF7): 2160 nM
Compound: CCCNNC(=O)c1ccc(CNC(=O)c2cnc(-c3cccc4ccccc34)[nH]2)cc1
- Activity (MC-38 [1]): 15.8%
- Activity (MC-38 [2]): 43.9%
- Activity (MC-38 [3]): 18.6%
- Activity (MC-38 [4]): 26.83%
- IC50 [5]: 930 nM
- Activity (MC-38 [6]): Dose-dependent-effect
- Activity (MC-38 [7]): 8.29%
- IC50 (MC-38 [8]): 2300 nM
- viability at 4 µM (MC-38 [9]): 28.3%
- Activity (MC-38 [10]): 46.63%
- Activity (B16-F10): 55.07%
- Activity (MC-38 [11]): Dose-dependent-effect
- Activity (MC-38 [12]): 0.92%

Compound: CCCNNC(=O)c1ccc(CNC(=O)c2cnc(-c3ccc4occc4c3)[nH]2)cc1
- Activity (MC-38 [1]): 11.97%
- Activity (MC-38 [2]): 24.75%
- Activity (Mus musculus): 20%
- AUC [13]: 1249.2 ng·h/mL
- IC50 (Histone deacetylase 7): > 10000 nM
- IC50 (HepG2): 330 nM
- half-life [14]: 3.13 h
- IC50 (Histone deacetylase 8): > 10000 nM
- Activity (MC-38 [3]): 31.2%
- IC50 (Histone deacetylase 1): 3980 nM
- Activity (MC-38 [4]): 54.95%
- Activity (MC-38 [15]): 91.43%
- IC50 [5]: 1030 nM
- Activity (MC-38 [6]): Dose-dependent-effect
- Activity (MC-38 [7]): 2.85%
- IC50 (MC-38 [8]): 1800 nM
- viability at 4 µM (MC-38 [9]): 18.2%
- Activity (MC-38 [10]): 60.9%
- Activity (B16-F10): 54.57%
- Activity (MC-38 [11]): Dose-dependent-effect
- Activity (MC-38 [12]): 2.1%
- IC50 (MCF7): 1900 nM

Reference: ChEMBL document CHEMBL6121046, “Discovery of Novel Hydrazide-Based HDAC3 Inhibitors as Epigenetic Immunomodulators for Cancer Immunotherapy” (J Med Chem, 2025)
